Results published in patent US20060229358A1, “Pharmaceutical composition containing flavonoids” (Taipei Medical University, priority 2005, published 2006).

Experiments:
[1] = test system: OVA-sensitized and challenged BALB/c mice, methacholine-induced Penh; assay: Airway hyperresponsiveness in vivo, Penh by whole-body plethysmography (Assay III); design: species or system mouse; settings: i.p., FIG. 3A
Description: (§1) Sensitization, airway challenge, and allergen provocation was carried out as described by Kanehiro et al with some modifications. The female BALB/c mice from 8 to 12 week of age were obtained from National Laboratory Animal Center (Taiwan), and maintained on diets free of ovalbumin (OVA). Mice were sensitized by an intraperitoneal (i.p.) injection of 20 μg of OVA emulsified in 2.25 mg aluminum hydroxide gel in a total volume of 100 μl on days 0 and 14. For comparison, some mice were not sensitized, but received sham injection. All mice were challenged via the airway by OVA (1% in saline) for 30 min on days 28, 29, and 30 by ultrasonic nebulization. […] AHR was assessed on day 73 (48 h after 1% OVA provocation) for each group. […] The AHR was measured in unrestrained animals by barometric plethysmography using a whole-body plethysmograph (WBP) (Buxco, Troy, N.Y., USA). Mice were placed into the main chamber of the WBP and nebulized first with phosphate buffer solution (PBS), then with increasing doses (6.25-50 mg/ml) of methacholine (MCh) for 3 min for each nebulization, followed by readings of breathing parameters for 3 min after each nebulization with determination of enhanced pause (Penh) values. […] The number of inflammatory cells was counted using a hemacytometer (Hausser Sci., Horsham, Pa., USA). […]

[2] = test system: inflammatory cells in BALF of OVA-sensitized BALB/c mice; assay: Inflammatory cells in BALF of OVA-sensitized mice (Assay III); assay type: in vivo, mouse; settings: FIG. 3B
Description: as §1

PDE4 = assay: Inhibition of cyclic nucleotide PDE activity (Assay I), PDE4, incl. Lineweaver-Burk analysis; assay type: biochemical, guinea pig; settings: from the IC50s of Table 2
Description: Under a protocol approved by the Animal Care and Use Committee of Taipei Medical University, five male guinea pigs (Hartley), weighing 500-600 g, were sacrificed. The lungs (15 g) or hearts (4 g) taken therefrom were chopped into small pieces and homogenized with a glass/teflon homogenizer (Glas-Col, Terre Haute, Ind., USA) in 10 volumes of cold medium (pH 6.5) containing 20 mM Bis-Tris, 2 mM benzamidine, 2 mM EDTA, 50 mM sodium chloride, 0.1 mM phenylmethanesulfonyl fluoride (PMSF), and 1 mM dithiothreitol. At 4° C., the homogenate was centrifuged at 170 g for 15 min, and the supernatant thereof was then re-centrifuged at 40,000 g for 30 min. […] The column was washed with two bed volumes of homogenate buffer to remove unbound material, where the resin beads therein will bind with proteins, such as PDE proteins. Proteins bound to the Q-sepharose beads were eluted with various concentrations (0.23, 0.34, 0.44, 0.69, and 1.00 M) of NaCl dissolved in homogenate buffer (for each concentration, 40-50 mL elution buffer were applied) at a flow rate of 30 ml/h. Fractions (3 ml each) were collected, and ethylene glycol (EG) was added thereto until a final concentration of 30% (v/v). And then the samples were frozen at −70° C.
The activities of PDE1-5 in the homogenate were measured with a two-step procedure according to the method of Thompson and Appleman, using cAMP with [^3H]-cAMP or cGMP with [^3 H]-cGMP as substrates. The PDE enzyme prepared (25 μl) with 10 μl inhibitor or the solvents therefor was incubated for 30 min at 37° C. in a total assay buffer, where the final volume of the assay is amounted to 100 μl. In accordance with the features of the PDE isozymes, the assay buffer contains 50 mM Tris/HCl (pH 7.4), 3 mM MgCl2, 1 mM dithiothreitol, and 0.05% BSA, and optionally contains 1 uM cAMP with 0.2 μCi [^3H]-cAMP as a substrate alone or in the presence of 0.1 unit calmodulin with 10 μM CaCl2, or 5 μM cGMP, and 1 μM cGMP with 0.2 μCi [^3H]-cGMP as another substrate alone or in the presence of 0.1 unit calmodulin with 10 μM CaCl2.
The PDE enzyme and the inhibitors (or their solvent) therefor were mixed and incubated on ice for 30 min previously, and then mixed with the assay buffer. The assay was initiated by transferring the mixture to a water bath at 37° C. Following the other 30 min incubation, the reaction was stopped by transferring the reaction vessel to a bath of boiling water for 3 min. After cooling on ice, 20 μl of the 1 mg/ml of Crotalus atrox venom was added to the reaction mixture, and the mixture was incubated at 37° C. for 10 min. The uncatalyzed substrates, such as cAMP, [^3H]-cAMP, cGMP, or [^3H]-cGMP were removed by the addition of 500 μl of a 1-in-1 Tris-HCl (40 mM) buffer suspension of Dowex resin (1×8-200) with incubation on ice for 30 min, since the bindings of the cyclic nucleotides and the resin. Each tube was then centrifuged for 2 min at 6000 rpm, and 100 μl of the supernatant was removed and counted by a β-counter for calculating the enzyme (PDEs) activity.
The dissociation constant of inhibitor binding (Ki) value was determined from the equation of apparent Km as a function of the inhibitor concentration (insert in A and B, respectively). The slope of the equation is equal to the value of […] (where KM is Michaelis constant). The amounts of the total proteins are calculated based on the analytical method reported by Bradford. In FIGS. 1A and 1B, all enzyme activities are shown as nmole of substrate per mg of proteins per minute (nmole/mg/min) hydrolyzed.
The IC50 values of flavonoids and various reference drugs were calculated using non-linear regression analysis by the software SigmaPlot 7.0 (Sigma Chemical, St. Louis Mo., USA).

SMILES | Penh values compared with non-sensitized mice ([1]; 3~30 μmol/kg) | Penh values induced by 50 mg/ml MCh ([1]; 10 and 30 μmol/kg, sensitized mice) | enhancement of eosinophils in BALF ([2]; 3 μmol/kg i.p., compared with control group) | enhancement of total inflammatory cells, macrophages, lymphocytes, neutrophils and eosinophils in BALF ([2]; 10 and 30 μmol/kg i.p.) | selectivity among PDE1-5 (PDE4)
COc1ccc(C2CC(=O)c3c(O)cc(O)cc3O2)cc1O (centres unmarked) [Hesperetin] | not significantly different | significantly suppressed | significantly suppressed | significantly suppressed | 
COc1cc(O)c2c(=O)c(-c3ccc(O)cc3)coc2c1 [Prunetin] |  |  |  |  | more-selective inhibition on PDE4
